BindingDB's records for doi:10.1021/jm00388a021 (1987)

How the values were obtained:
[1] = molecular target: Thymidine kinase (Herpes simplex virus 1); test: Compound was evaluated for Kinetic constant for viral thymidine kinase of Herpes simplex virus (HSV) -1
[2] = molecular target: Thymidine kinase (Herpes simplex virus 2); test: Compound was evaluated for Kinetic constant for viral thymidine kinase of Herpes simplex virus (HSV) -2

O=c1[nH]c(=O)n([C@@H]2O[C@H](CO)[C@@H](O)[C@@H]2F)cc1I [FIALURIDINE]
Ki [1]: 0.14 µM | Ki [2]: 0.95 µM
